A short description of data set [1]: log D octanol/water distribution coefficient. The class given is physicochemical. From the text: Lipophilicity has been correlated to various drug properties, affecting permeability, absorption, distribution, plasma protein binding, metabolism, elimination, and toxicity. In contrast to honokiol and magnolol, compounds claimed in the invention, and more particularly those wherein the nitrogen atom in the group -O-CH(phenyl)-(CH2)p-NH-R^3 is protonated and the compound further comprises a pharmaceutically acceptable counter-anion present an optimal log Doctanol/water (range 0-3), indicating good aqueous solubility, permeability, oral absorption, and blood-brain barrier penetration. Experimental studies in murine models have confirmed the results.
Absorption, distribution and metabolism studies in vitro with selected examples were performed in order to determine pharmacokinetic parameters such as permeability (or absorption constant), intrinsic clearance (or metabolic clearance), and bioavailability. Physicochemical properties such as water solubility, pKa, log P, and log Doctanol/water, and in vitro experimental studies such as permeability in Caco2 cells, and protein binding in the mouse, stability in murine microsomes, chemical stability at different pH and stability in plasma were evaluated for the pharmacokinetic prediction in mice.

In the next data set the target is T1, EGFR (Homo sapiens, UniProt P00533).
T1 construct: EGF receptor tyrosin-protein kinase activity was assessed in human A431 cells; endogenous in cells; host or cells: human A431 cells
The data set can be described thus: EGF receptor tyrosine-protein kinase inhibition (ELISA of Poly[Glu:Tyr-P]). The format is biochemical. As to the method:
EGF receptor tyrosin-protein kinase activity was assessed in human A431 cells using as a substrate Poly(Glu:Tyr) at 10 µg/ml with a preincubation and incubation times of 15 and 60 min, respectively, at 25°C respectively in 50 mM HEPES pH 7.4, 20 mM MgCl2 and 0.2 mM Na3VO4. An ELISA quantification method of Poly[Glu:Tyr-P] was employed (Cheng, K. and Koland, J.G. J Biol Chem, 1996, 271, 311-318). Table 5. Inhibition of EGFR at 10 µM

The next data set concerns tumor leukaemia K562. The data set can be described thus: Tumor cell proliferation assay (alamarBlue). The class given is cell-based. The following applies: Homo sapiens. As to the method:
(§1) Changes in cell proliferation were detected based on the ability of viable cells to cause alamarBlue® to change its oxidized (non-fluorescent, blue) to a reduced (fluorescent, red) form. The alamarBlue® reaction allows the quantification of cell proliferation and examination of the metabolic activity of viable cells. Test substances were examined for activity on the proliferation of human or murine tumor cell lines at assay concentrations from 0.01 to 100 µM.

For the next data set, the system named is tumor liver HepG2. Briefly: Tumor cell proliferation assay (alamarBlue). The class given is cell-based. The following applies: Homo sapiens. As to the method:
as §1
In general terms: Alamar Blue is a resazurin reagent that responds to reducing activity.

In the next data set the test system is tumor lung A549. The data set can be described thus: Tumor cell proliferation assay (alamarBlue). The format is cell-based. The following applies: Homo sapiens. As to the method: as §1
Another data set relates to tumor prostate LNCaP-FGC. Briefly: Tumor cell proliferation assay (alamarBlue). The class given is cell-based. The following applies: Homo sapiens. As to the method: as §1
Another data set concerns the target T2, 5-LO (Homo sapiens, UniProt P09917).
T2 construct: host or cells: Sf9 insect cells
T2 sequence (P09917 1-674): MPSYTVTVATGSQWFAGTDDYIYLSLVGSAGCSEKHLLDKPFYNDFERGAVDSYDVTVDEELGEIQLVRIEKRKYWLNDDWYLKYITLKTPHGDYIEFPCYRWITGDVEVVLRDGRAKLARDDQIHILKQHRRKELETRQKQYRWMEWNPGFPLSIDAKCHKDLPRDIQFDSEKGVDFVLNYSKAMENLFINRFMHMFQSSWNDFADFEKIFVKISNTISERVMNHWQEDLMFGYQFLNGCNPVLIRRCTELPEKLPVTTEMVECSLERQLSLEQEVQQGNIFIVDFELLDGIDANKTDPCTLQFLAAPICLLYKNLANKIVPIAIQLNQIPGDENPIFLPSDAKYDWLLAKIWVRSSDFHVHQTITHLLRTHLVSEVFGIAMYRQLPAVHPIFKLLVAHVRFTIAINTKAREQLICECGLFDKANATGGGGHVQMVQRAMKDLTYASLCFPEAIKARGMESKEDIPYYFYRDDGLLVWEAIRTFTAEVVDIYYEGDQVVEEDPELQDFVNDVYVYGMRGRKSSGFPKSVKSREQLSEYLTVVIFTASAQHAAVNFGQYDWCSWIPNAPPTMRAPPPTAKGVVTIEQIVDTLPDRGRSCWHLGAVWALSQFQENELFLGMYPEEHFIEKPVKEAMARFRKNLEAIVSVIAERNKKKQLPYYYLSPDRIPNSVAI
The data set can be described thus: 5-Lipoxygenase inhibition (LTB4 enzyme immunoassay). The class given is biochemical. As to the method: The 5-LO-inhibitory activity of compounds of the invention was determined using previously reported assays. Briefly, lipoxygenase activity was evaluated in human recombinant insect Sf9 cells using 3µM arachidonic acid as a substrate with a preincubation and incubation times of 15 and 5 min respectively at 25°C in a 50 mM Tris-HCl, pH 7.4, 2 mM CaCl2, 1 mM ATP. The quantification method used was enzyme immunoassay determination of LTB4 and the significance criteria were established with a response equal or different of the maximum stimulation or inhibition (Noguchi, M. et al., Eur J Biochem, 1994, 222(2), 285-292; Percival, M.D. et al., Eur J Biochem, 1992, 210(1), 109-117).

[2] abbreviates: EGFR, at 10 µM, read-out: % Inhibition.
[3] abbreviates: tumor leukaemia K562, read-out: IC50.
The mark [4] stands for this setting: tumor liver HepG2, read-out: IC50.
Setting [5] is: tumor lung A549, read-out: IC50.
Where [6] appears, read: tumor prostate LNCaP-FGC, read-out: IC50.
[7] abbreviates: 5-LO, at 10 µM, read-out: % Inhibition.

The values below come from patent EP2423181A1, “Multitarget substituted biphenyl diol derivatives” (PROUS INSTITUTE FOR BIOMEDICAL RESEARCH S.A., priority 2010, dated 2012).

The term inhibition denotes the drop in the measured response relative to a control, in per cent. In general, IC50 refers to the concentration needed to halve the response being measured.

SMILES strings stand for the structures. Structures can show the parent of a compound that is named as a salt. Where two headings read alike, the source gives them in different places.

T1 sequence (P00533 25-1210): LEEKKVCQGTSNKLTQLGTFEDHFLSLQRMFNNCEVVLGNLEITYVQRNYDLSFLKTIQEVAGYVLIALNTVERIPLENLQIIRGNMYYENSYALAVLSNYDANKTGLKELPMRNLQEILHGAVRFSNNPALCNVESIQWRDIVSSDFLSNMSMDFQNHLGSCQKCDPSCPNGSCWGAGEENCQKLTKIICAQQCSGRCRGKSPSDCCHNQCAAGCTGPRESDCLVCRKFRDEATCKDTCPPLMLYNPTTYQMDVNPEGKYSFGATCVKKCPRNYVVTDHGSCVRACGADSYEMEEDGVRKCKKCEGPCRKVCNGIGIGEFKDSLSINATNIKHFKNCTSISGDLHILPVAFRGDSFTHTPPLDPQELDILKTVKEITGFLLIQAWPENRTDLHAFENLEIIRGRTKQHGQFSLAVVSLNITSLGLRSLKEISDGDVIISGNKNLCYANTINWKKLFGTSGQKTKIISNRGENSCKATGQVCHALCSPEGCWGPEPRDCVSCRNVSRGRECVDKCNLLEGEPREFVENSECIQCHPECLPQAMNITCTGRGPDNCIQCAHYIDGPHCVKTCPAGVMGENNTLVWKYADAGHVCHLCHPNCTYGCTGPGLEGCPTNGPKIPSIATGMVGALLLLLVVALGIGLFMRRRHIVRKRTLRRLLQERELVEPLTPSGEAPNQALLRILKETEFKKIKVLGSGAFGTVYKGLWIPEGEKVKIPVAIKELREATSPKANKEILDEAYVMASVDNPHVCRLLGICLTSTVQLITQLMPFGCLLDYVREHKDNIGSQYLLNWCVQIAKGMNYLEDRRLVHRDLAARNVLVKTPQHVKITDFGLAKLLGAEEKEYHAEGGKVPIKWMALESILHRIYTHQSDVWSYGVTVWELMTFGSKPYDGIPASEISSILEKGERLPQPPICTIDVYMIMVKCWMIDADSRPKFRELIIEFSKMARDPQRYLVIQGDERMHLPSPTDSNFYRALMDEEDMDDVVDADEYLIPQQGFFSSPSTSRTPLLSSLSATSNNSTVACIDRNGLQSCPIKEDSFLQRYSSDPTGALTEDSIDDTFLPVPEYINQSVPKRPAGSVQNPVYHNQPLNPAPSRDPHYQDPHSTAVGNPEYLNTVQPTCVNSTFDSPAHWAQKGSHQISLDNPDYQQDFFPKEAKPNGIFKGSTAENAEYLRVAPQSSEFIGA

With `C=CCc1ccc(O)c(-c2cc(CC=C)ccc2OC(CCNC)c2ccccc2)c1.Cl` (stereo not drawn) [Example 1, 5,5'-Diallyl-2'-[3-(methylamino)-1-phenylpropoxy]biphenyl-2-ol hydrochloride], in data set [1], the logDoctanol/water turned out to be 1.31. In addition, the inhibition at 10 µM was 72% on EGFR (setting [2]) and 100% at 5-LO (setting [7]). For the same compound, the IC50 in the data set with tumor leukaemia K562 (setting [3]) amounted to 1.9 µM; in the data set on tumor liver HepG2 (setting [4]), 1.4 µM; with tumor lung A549 (setting [5]), 5 µM; in the data set with tumor prostate LNCaP-FGC (setting [6]) it was 13 µM.

Take `C=CCc1ccc(O)c(-c2ccc(OC(CCNC)c3ccccc3)c(CC=C)c2)c1` (stereo not drawn) [Example 5, 3',5-Diallvl-4'-13-(methylamino)-1-phenylpropoxy]biphenyl-2-ol hydrochloride]: the logDoctanol/water in data set [1] is listed as 0.85. The inhibition at 10 µM on EGFR turned out to be 99%; at 5-LO, 101%. The IC50 with tumor leukaemia K562 (K562) amounted to 1.4 µM; in the data set with tumor liver HepG2 (HepG2) it was 1 µM; in the data set with tumor lung A549 (A549), 1.2 µM; in the data set on tumor prostate LNCaP-FGC, 1.5 µM.

Turning to `C=CCc1ccc(O)c(-c2ccc(O)c(CC=C)c2)c1` [Honokiol, reference compound], the logDoctanol/water in data set [1] turned out to be 5.25. Also, the inhibition at 10 µM is 7% at EGFR (setting [2]) and 85% at 5-LO (setting [7]). The 50% inhibitory concentration (IC50) with tumor leukaemia K562 (setting [3]) came out at 16 µM; in the data set on tumor liver HepG2 (setting [4]) it was 12 µM; in the data set on tumor lung A549 (setting [5]) it was 12 µM; with tumor prostate LNCaP-FGC (setting [6]) it was 16 µM.
